# Reference: patent US9365556B2, “3,5-diaminopyrazole kinase inhibitors” (Axikin Pharmaceuticals, Inc., priority 2012, dated 2016)
# Target: T1, kinase domain protein of RC kinase (Homo sapiens, UniProt Q56UN5)
# T1 sequence (Q56UN5 1061-1324 limits assumed): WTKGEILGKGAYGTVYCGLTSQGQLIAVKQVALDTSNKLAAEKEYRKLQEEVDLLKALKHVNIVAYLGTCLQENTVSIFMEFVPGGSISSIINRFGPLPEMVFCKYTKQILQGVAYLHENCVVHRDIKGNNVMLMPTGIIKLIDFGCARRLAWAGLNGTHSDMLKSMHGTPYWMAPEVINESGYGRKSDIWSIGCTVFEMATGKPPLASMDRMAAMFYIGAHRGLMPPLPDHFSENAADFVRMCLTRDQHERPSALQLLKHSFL
# Assay: Enzymatic assay for kinase inhibitory activity (Crebtide substrate, LANCE read-out)
# Assay type: biochemical
# Settings: compound at 1 μM
# Description: Solutions of a test compound, Crebtide (a substrate), a kinase, and ATP were prepared using 1×MAPK Buffer (50 mM HEPES, 1 mM EGTA, […], 10 mM MgCl2, 2 mM DTT, and 0.01% Tween 20).
# To each well, the test compound (1 μL) was first added (in duplicate) to reach a final concentration of 1 μM or 1×IC50 of the compound. The kinase (5 μl) was then added to each well to reach a final concentration of […] for the kinase domain or […] for the full-length domain. Each plate included a positive and negative controls in duplicate wells. Crebtide (2.5 μL) was then added to each well in duplicate to reach a final concentration of 50 nM. If the full-length kinase was used, the plates were incubated for 45 min at room temperature before proceeding further. ATP (2.5 μL) was added to each well to reach a final concentration of 1 μM for the kinase domain and 3 μM for the full-length.
# After the addition of ATP, the plates were incubated for 45 min at room temperature. During the incubation, an EDTA solution (40 mM) and anti-Crebtide ([…]) were prepared. Additionally, a detection buffer stock solution was diluted ten fold before use.
# After the incubation, the anti-Crebtide (5 μL) and EDTA (5 μL) were added to each well to reach their final concentrations of […] and 10 mM, respectively. The plates were allowed to develop at room temperature for 45 min. The plates were then read at 665 nm and 615 nm using Perkin Elmer Lance machine.
# The biological results of inhibition of the kinase domain protein of RC kinase are summarized in Tables 2 and 3, wherein A represents at least 50% inhibition of the RC kinase activity at 1 μM; B represents no greater than 50% but at least 20% inhibition of the RC kinase activity at 1 μM; C represents no greater than 20% but at least 5% inhibition of the RC kinase activity at 1 μM; and D represents no greater than 5% inhibition of the RC kinase activity at 1 μM.
smiles,measurement,setting,value
Cc1ccc(/C=N/c2[nH]nc(Nc3cccc(Cl)c3)c2C(N)=O)c(O)c1 [Compound B106],inhibition at 1 µM,,≤ 5%
N#Cc1c(Nc2cccc(Cl)c2)n[nH]c1/N=C/c1ccc(-c2ccc(Cl)cc2)o1 [Compound A73],Activity (inhibition of the RC kinase activity),,C (no greater than 20% but at least 5% inhibition of the RC kinase activity at 1 μM)
NC(=O)c1c(Nc2cccc(Cl)c2)n[nH]c1/N=C/c1ccc(Cl)cc1O [Compound B94],inhibition at 1 µM,,5 to 20%
NC(=O)c1c(Nc2cccc(Cl)c2)n[nH]c1/N=C/c1ccc(OCc2ccc(F)cc2)cc1 [Compound B107],inhibition at 1 µM,,≤ 5%
Cn1nc(C(F)(F)F)c(/C=N/c2[nH]nc(Nc3cccc(Cl)c3)c2C#N)c1Cl [Compound A69],Activity (inhibition of the RC kinase activity),,C (no greater than 20% but at least 5% inhibition of the RC kinase activity at 1 μM)
COc1cc(/C=N/c2[nH]nc(Nc3cccc(Cl)c3)c2C#N)cc(O)c1OC [Compound A85],Activity (inhibition of the RC kinase activity),,C (no greater than 20% but at least 5% inhibition of the RC kinase activity at 1 μM)
COc1ccc(/C=N/c2[nH]nc(Nc3ccccc3)c2C#N)cc1 [Compound A6],Activity (inhibition of the RC kinase activity),,B (no greater than 50% but at least 20% inhibition of the RC kinase activity at 1 μM)
"CS(=O)(=O)c1ccc(/C=N/c2[nH]nc(Nc3cccc(Cl)c3)c2C(N)=O)cc1 [Compound B92, 3-((3-chlorophenyl)amino)-5-((4-(methylsulfonyl)benzylidene)amino)-1H-pyrazole-4-carboxamide]",inhibition at 1 µM,,≤ 5%
"CC(C)(C)c1ccc(Nc2[nH]nc(N=Cc3ccc(O)cc3)c2C#N)cc1 [Compound A57, 5-((4-(tert-butyl)phenyl)amino)-3-((4-hydroxybenzylidene)amino)-1H-pyrazole-4-carbonitrile]",inhibition at 1 µM,,5 to 20%
"NC(=O)c1c(Nc2ccc([N+](=O)[O-])cc2)n[nH]c1/N=C/c1ccccc1 [Compound B39, (E)-5-(benzylideneamino)-3-((4-nitrophenyl)amino)-1H-pyrazole-4-carboxamide]",inhibition at 1 µM,,5 to 20%
"NC(=O)c1c(Nc2cccc(Cl)c2)n[nH]c1/N=C/c1cc(F)c(O)c(F)c1 [Compound B86, 3-((3-chlorophenyl)amino)-5-((3,5-difluoro-4-hydroxybenzylidene)amino)-1H-pyrazole-4-carboxamide]",inhibition at 1 µM,,≥ 50%
NC(=O)c1c(Nc2cccc(Cl)c2)n[nH]c1/N=C/c1ccc(Cl)cc1Cl [Compound B93],Activity (inhibition of the RC kinase activity),,D (no greater than 5% inhibition of the RC kinase activity at 1 μM)
N#Cc1c(Nc2cccc(Cl)c2)n[nH]c1/N=C/c1c(O)cccc1Cl [Compound A92],Activity (inhibition of the RC kinase activity),,D (no greater than 5% inhibition of the RC kinase activity at 1 μM)
NC(=O)c1c(Nc2cccc(Cl)c2)n[nH]c1/N=C/c1ccc(Cl)nc1 [Compound B59],inhibition at 1 µM,,≤ 5%
NC(=O)c1c(Nc2cccc(Cl)c2)n[nH]c1/N=C/c1ccc[nH]1 [Compound B17],Activity (inhibition of the RC kinase activity),,B (no greater than 50% but at least 20% inhibition of the RC kinase activity at 1 μM)
N#Cc1c(Nc2cccc(Cl)c2)n[nH]c1/N=C/c1cccs1 [Compound A105],Activity (inhibition of the RC kinase activity),,D (no greater than 5% inhibition of the RC kinase activity at 1 μM)
NC(=O)c1c(Nc2cccc(Cl)c2)n[nH]c1/N=C/c1ccc(OC(F)F)c(O)c1 [Compound B68],inhibition at 1 µM,,≥ 50%
Cn1nc(CSc2ccccc2)c(/C=N/c2[nH]nc(Nc3cccc(Cl)c3)c2C(N)=O)c1Cl [Compound B67],inhibition at 1 µM,,20 to 50%
"Cc1cc(/C=N/c2[nH]nc(Nc3cccc(Cl)c3)c2C(N)=O)cc(C)c1O [Compound B61, 3-((3-chlorophenyl)amino)-5-((4-hydroxy-3,5-dimethylbenzylidene)amino)-1H-pyrazole-4-carboxamide]",inhibition at 1 µM,,≥ 50%
NC(=O)c1c(Nc2cccc(Cl)c2)n[nH]c1/N=C/c1ccc(C(F)(F)F)cc1 [Compound B16],Activity (inhibition of the RC kinase activity),,D (no greater than 5% inhibition of the RC kinase activity at 1 μM)
NC(=O)c1c(Nc2cccc(Cl)c2)n[nH]c1/N=C/c1c[nH]c2c(F)c(F)c(F)c(F)c12 [Compound B76],Activity (inhibition of the RC kinase activity),,D (no greater than 5% inhibition of the RC kinase activity at 1 μM)
COc1ccc(/C=N/c2[nH]nc(Nc3cccc(Cl)c3)c2C(N)=O)c(C)c1C [Compound B57],Activity (inhibition of the RC kinase activity),,B (no greater than 50% but at least 20% inhibition of the RC kinase activity at 1 μM)
N#Cc1c(Nc2cccc(Cl)c2)n[nH]c1/N=C/c1cnc(N)s1 [Compound B99],Activity (inhibition of the RC kinase activity),1 µM,A (at least 50% inhibition of the RC kinase activity at 1 μM)
"NC(=O)c1c(Nc2cccc(Cl)c2)n[nH]c1/N=C/c1ccc(Oc2ncccn2)cc1 [Compound B64, 3-((3-chlorophenyl)amino)-5-((4-(pyrimidin-2-yloxy)benzylidene)amino)-1H-pyrazole-4-carboxamide]",inhibition at 1 µM,,≥ 50%
NC(=O)c1c(Nc2ccccc2Cl)n[nH]c1/N=C/c1cc(O)ccc1[N+](=O)[O-] [Compound B116],Activity (inhibition of the RC kinase activity),,C (no greater than 20% but at least 5% inhibition of the RC kinase activity at 1 μM)
NC(=O)c1c(Nc2cccc(Cl)c2)n[nH]c1/N=C/c1c[nH]nc1-c1ccc(F)cc1 [Compound B98],Activity (inhibition of the RC kinase activity),,C (no greater than 20% but at least 5% inhibition of the RC kinase activity at 1 μM)
NC(=O)c1c(Nc2cccc(Cl)c2)n[nH]c1/N=C/c1ccc(F)cc1O [Compound B83],inhibition at 1 µM,,5 to 20%
COc1cccc(/C=N/c2[nH]nc(Nc3cccc(Cl)c3)c2C#N)c1 [Compound A24],Activity (inhibition of the RC kinase activity),,D (no greater than 5% inhibition of the RC kinase activity at 1 μM)
NC(=O)c1c(Nc2cccc(Cl)c2)n[nH]c1/N=C/c1cccc(Oc2ncccn2)c1 [Compound B77],inhibition at 1 µM,,5 to 20%
NC(=O)c1c(Nc2cccc(Cl)c2)n[nH]c1/N=C/c1ccc(Oc2ccc(C(F)(F)F)cn2)cc1 [Compound B63],Activity (inhibition of the RC kinase activity),,B (no greater than 50% but at least 20% inhibition of the RC kinase activity at 1 μM)
"NC(=O)c1c(Nc2cccc(Cl)c2)n[nH]c1/N=C/c1cccc(OCCO)c1 [Compound B104, 3-((3-chlorophenyl)amino)-5-((3-(2-hydroxyethoxy)benzylidene)amino)-1H-pyrazole-4-carboxamide]",inhibition at 1 µM,,20 to 50%
Cc1ncsc1/C=N/c1[nH]nc(Nc2cccc(Cl)c2)c1C#N [Compound A104],Activity (inhibition of the RC kinase activity),,D (no greater than 5% inhibition of the RC kinase activity at 1 μM)
COc1cccc(O)c1/C=N/c1[nH]nc(Nc2cccc(Cl)c2)c1C(N)=O [Compound B48],Activity (inhibition of the RC kinase activity),,C (no greater than 20% but at least 5% inhibition of the RC kinase activity at 1 μM)
Cc1[nH]c2ccccc2c1/C=N/c1[nH]nc(Nc2cccc(Cl)c2)c1C(N)=O [Compound B69],Activity (inhibition of the RC kinase activity),,B (no greater than 50% but at least 20% inhibition of the RC kinase activity at 1 μM)
N#Cc1c(Nc2cccc(Cl)c2)n[nH]c1/N=C/c1ccc(-c2ccccn2)s1 [Compound A2],inhibition at 1 µM,,20 to 50%
N#Cc1c(Nc2cccc(Cl)c2)n[nH]c1/N=C/c1ccc[nH]1 [Compound A27],Activity (inhibition of the RC kinase activity),,C (no greater than 20% but at least 5% inhibition of the RC kinase activity at 1 μM)
COc1cc(O)cc(OC)c1/C=N/c1[nH]nc(Nc2cccc(Cl)c2)c1C(N)=O [Compound B108],Activity (inhibition of the RC kinase activity),,B (no greater than 50% but at least 20% inhibition of the RC kinase activity at 1 μM)
N#Cc1c(Nc2cc(Cl)cc(Cl)c2)n[nH]c1/N=C/c1ccc(O)cc1 [Compound A56],inhibition at 1 µM,,5 to 20%
NC(=O)c1c(Nc2cccc(Cl)c2)n[nH]c1/N=C/c1ccc(OC(F)(F)F)c(F)c1 [Compound B90],Activity (inhibition of the RC kinase activity),,D (no greater than 5% inhibition of the RC kinase activity at 1 μM)
NC(=O)c1c(Nc2cccc(Cl)c2)n[nH]c1/N=C/c1cnccn1 [Compound B80],inhibition at 1 µM,,≤ 5%
N#Cc1c(Nc2ccccc2)n[nH]c1/N=C/c1ccc[nH]1 [Compound A28],inhibition at 1 µM,,5 to 20%
NC(=O)c1c(Nc2cccc(Cl)c2)n[nH]c1/N=C/c1ccc(Oc2ncccn2)cc1 [Compound B123],Activity (inhibition of the RC kinase activity),1 µM,B (no greater than 50% but at least 20% inhibition of the RC kinase activity at 1 μM)
COc1ccc(F)cc1/C=N/c1[nH]nc(Nc2cccc(Cl)c2)c1C(N)=O [Compound B58],inhibition at 1 µM,,20 to 50%
N#Cc1c(Nc2cccc(Cl)c2)n[nH]c1/N=C/c1ccc(Oc2ncccn2)cc1 [Compound A77],Activity (inhibition of the RC kinase activity),1 µM,D (no greater than 5% inhibition of the RC kinase activity at 1 μM)
